Results as given in article PMC10107299, “Neutralizing the Impact of the Virulence Factor LecA from Pseudomonas aeruginosa on Human Cells with New Glycomimetic Inhibitors” (Angewandte Chemie (International Ed. in English), 2023).
Values after ≈ are worked out from the molar mass of the structure shown. Values joined by “and” are separate entries in the source; they are usually repeats but may differ in a detail not shown here. Equal entries are not always repeated.

Key:
[1] = Kinetic solubility in TBS/Ca2+ buffer (HPLC-MS); type: physicochemical; conditions: aqueous buffer, kinetic from dmso stock; TBS/Ca2+ buffer pH 7.4, 1 % DMSO, N≥3; read-out: Solubility S (kinetic)
Description: Next, we quantified the solubility of at least one representative of each new class and of one parent bisacylhydrazone in aqueous media (Table 1). […]
TBS/Ca2+ buffer (20 mM Tris, 137 mM NaCl, 2.6 mM KCl at pH 7.4 supplemented with 1 mM […]
(§1) CaCl2) in presence of 25% DMSO. […]
Kinetic solubility was determined on the analytical HPLC-MS using Compass QuantAnalysis quantification software (Bruker). Samples were prepared from DMSO stock solutions by dilution with TBS/Ca2+ buffer to 100 µM with 1% DMSO present. Samples were incubated on a shaker for 1 h at r.t., centrifuged (21380 g, 20 min), supernatants were diluted with DMSO (1:3), analyzed by HPLC-MS and fitted to the individual calibration curves.
Every experiment was repeated independently at least three times. […]

LecA [2] = target: T1, LecA (Pseudomonas aeruginosa, UniProt Q05097); test: Isothermal titration microcalorimetry (ITC) with LecA; type: binding; conditions: for -TΔS (supplement) / ΔS: ITC average ± s.d.; for Relative potency r.p. (ITC): compared to respective monovalent compound in each series; for ΔG, individual titration / ΔH, individual titration: LecA 35-182 µM, ligand 100 µM-1.5 mM as headed
T1 construct: made in house
T1 sequence (Q05097 whole entry): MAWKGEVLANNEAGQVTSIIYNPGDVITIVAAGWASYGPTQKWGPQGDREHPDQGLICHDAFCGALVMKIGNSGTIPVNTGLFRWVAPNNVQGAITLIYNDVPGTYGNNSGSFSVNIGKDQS
Text: Due to the high solubility of the propanamides in the pyridine series and the sulfonated ligand L2, we determined binding thermodynamics with LecA using isothermal titration microcalorimetry (ITC, Figure 3, Figures S5–S9). […] In both cases, the enthalpy of binding increased approximately twofold (I2: ΔH=−23.9±1.2 kcal mol^−1, L2: ΔH=−19.5±1.3 kcal mol^−1) compared to their monovalent analogues (G2: ΔH=−11.0±0.2 kcal mol^−1, K2: ΔH=−10.3±0.1 kcal mol^−1), while the binding entropy was increased approximately threefold (G2: −TΔS=3.8±0.2 kcal mol^−1 vs. I2: −TΔS=13.7±1.3 kcal mol^−1, K2: −TΔS=3.2±0.2 kcal mol^−1 vs. L2: −TΔS=9.4±1.3 kcal mol^−1).
Figure 3 Direct binding of selected ligands to LecA by ITC (N=3). Titration of LecA (50 μM) with divalent sulfonated ligand L2 (250 μM) is depicted. Relative potencies (r.p.) were calculated compared to respective monovalent compound in each series and […]. TEXT PRINTED IN THE PICTURE: G2: ΔG [kcal/mol]: -7.2 ± 0.1; ΔH [kcal/mol]: -11.0 ± 0.2; -TΔS [kcal/mol]: 3.8 ± 0.2; N: 1.07 ± 0.06; Kd [nM]: 5 270 ± 30; r.p.: 1 | I2: ΔG [kcal/mol]: -10.2 ± 0.2; ΔH [kcal/mol]: -23.9 ± 1.2; -TΔS [kcal/mol]: 13.7 ± 1.3; N: 0.43 ± 0.01; Kd [nM]: 35.1 ± 12.5; r.p.: 150 | J2: ΔG [kcal/mol]: -9.7 ± 0.2; ΔH [kcal/mol]: -13.5 ± 0.4; -TΔS [kcal/mol]: 3.8 ± 0.5; N: 0.61 ± 0.06; Kd [nM]: 79.5 ± 32.8; r.p.: 66 | K2: ΔG [kcal/mol]: -7.1 ± 0.1; ΔH [kcal/mol]: -10.3 ± 0.1; -TΔS [kcal/mol]: 3.2 ± 0.2; N: 1.08 ± 0.13; Kd [nM]: 6 230 ± 440; r.p.: 1 | L2: ΔG [kcal/mol]: -10.1 ± 0.1; ΔH [kcal/mol]: -19.5 ± 1.3; -TΔS [kcal/mol]: 9.4 ± 1.3; N: 0.52 ± 0.06; Kd [nM]: 39.9 ± 3.6; r.p.: 156 […]
Expression and purification of LecA as well as competitive binding by fluorescence polarization was performed as described by Joachim et al..[9] The assay was performed in TBS/Ca2+ buffer (20 mM Tris, 137 mM NaCl, 2.6 mM KCl at pH 7.4 supplemented with 1 mM […]
as §1
Isothermal titration calorimetry was performed on an iTC200 (Malvern Panalytical) and the data were analyzed using Microcal Origin software (Malvern Panalytical). LecA (50 - 180 […]
K2 and L2 and TBS/Ca2+ buffer supplemented with 5% DMSO for I2 and J2. Steep titration slopes achieved with the divalent ligands were the result of high amount of protein present and the high binding affinity of the ligand (high ‘value of c’).[10] However, LecA protein […]
low heat released upon binding. […]

LecA [3] = target: T1, LecA; test: Inhibition of LecA-AF488 binding to H1299 cells, flow cytometry; type: cell-based; conditions: for IC50: IC50 for inhibition of LecA binding to H1299 cells, N=3; for IC50 / Decrease of LecA binding to H1299 cells: 0.16 μM LecA-AF488, flow cytometry; for Inhibition of lectin binding to the cells: 7.5 μM and above, flow cytometry
Description: Next, we investigated the two most promising compounds H2 and L2 for their efficacy to inhibit LecA binding to H1299 human lung epithelial cells using flow cytometry and confocal microscopy. To this end, LecA was fluorescently labelled with Alexa Fluor 488 NHS ester (LecA‐AF488), incubated with varying concentrations of the inhibitors (100 nM to 10 μM) and subsequently added to the cells.
For flow cytometry analysis, inhibitors were preincubated with 0.16 μM LecA prior addition to the H1299 cells. After incubation for 30 min, fluorescence intensity was recorded at the flow cytometer. […] In contrast, 10 μM of the corresponding monovalent ligands G2 and K2 were required for 50 % inhibition (Figure S10).
H1299 cells were detached with 2 mL of 1.5 mM EDTA in PBS, 1.2 × 10^5 cells were counted and transferred to a U-bottom 96 well plate (Sarstedt AG & Co. KG, Numbrecht, Germany).
For flow cytometry assay, the optimal LecA concentration was established following a lectin titration (0.04–0.5 µM LecA-AF488) with H1299 cells. The histogram of fluorescence intensity […]
µM LecA-AF488 was used in flow cytometry experiments. LecA-AF488 was preincubated with PNPG, G2, K2, H2 or L2 in RPMI medium, for 20 min at room temperature and protected from light. The ligand-LecA solution was then added to the cells and further incubated for 30 min at 4 °C. H1299 cells were resuspended with medium in absence of lectin or inhibitor represented the negative assay control, while cells incubated only with LecA-AF488 (no inhibitor) served as the positive control. Subsequently, cells were centrifuged at 1600 × g for 3 min at 4 °C to remove unbound lectin. The samples were then washed twice with ice-cold FACS buffer (PBS (-/-) supplemented with 3% FCS (v/v)). After the last washing step, the cells were re-suspended in FACS buffer and transferred to FACS tubes (Kisker Biotech GmbH Co. KG, Steinfurt, Germany) on ice and in absence of light. The fluorescence intensity of treated cells was measured with FACS Gallios from Beckman Coulter. […]

[4] = ITC average, 25 °C, TBS/Ca2+ buffer (5% DMSO for I2 and J2), N=3
[5] = Kd (ITC), ITC average, 25 °C, TBS/Ca2+ buffer
[6] = Kd, individual titration, single ITC titrations, three per ligand
[7] = single ITC titrations, three per ligand

| Compound | solubility kinetic at 1 h [1] | -TΔS (supplement) (LecA [2]; 25 °C) | ΔS (LecA [2]; 25 °C) | N (stoichiometry) (LecA [2]; ITC average, 25 °C, N=3) | -TΔS (LecA [2]; [4]) | ΔG (LecA [2]; [4]) | ΔH (LecA [2]; [4]) | Kd (LecA [2]; [5]) | Kd (LecA [2]; [6]) | Relative potency r.p. (ITC) (LecA [2]) | N, individual titration (LecA [2]; [7]) | ΔS, individual titration (LecA [2]; [7]) | ΔG, individual titration (LecA [2]; [7]) | ΔH, individual titration (LecA [2]; [7]) | IC50 (LecA [3]) | Decrease of LecA binding to H1299 cells (LecA [3]; 250 nM inhibitor) | Decrease of LecA binding to H1299 cells (LecA [3]; 1 μM inhibitor) | Inhibition of lectin binding to the cells (LecA [3]) | Kd (LecA [2]; Kd (ITC), ITC average, 25 °C, TBS/Ca2+ buffer (5% DMSO for I2 and J2), N=3) |
| --- | --- | --- | --- | --- | --- | --- | --- | --- | --- | --- | --- | --- | --- | --- | --- | --- | --- | --- | --- |
| O=C(/C=C/c1ccc(O[C@@H]2O[C@H](CO)[C@H](O)[C@H](O)[C@H]2O)cc1)Nc1ccc(OCCOc2ccc(NC(=O)/C=C/c3ccc(O[C@@H]4O[C@H](CO)[C@H](O)[C@H](O)[C@H]4O)cc3)cc2)cc1 [Compound D1] | 3.3 ± 1.3 µM (≈ 2.84 µg/mL) |  |  |  |  |  |  |  |  |  |  |  |  |  |  |  |  |  |  |
| O=C(CCc1ccc(O[C@@H]2O[C@H](CO)[C@H](O)[C@H](O)[C@H]2O)cc1)Nc1ccc(OCCOc2ccc(NC(=O)CCc3ccc(O[C@@H]4O[C@H](CO)[C@H](O)[C@H](O)[C@H]4O)cc3)cc2)cc1 [Compound D2] | 3.1 ± 2.1 µM (≈ 2.68 µg/mL) |  |  |  |  |  |  |  |  |  |  |  |  |  |  |  |  |  |  |
| COc1ccc(NC(=O)CCc2ccc(O[C@@H]3O[C@H](CO)[C@H](O)[C@H](O)[C@H]3O)cc2)cn1 [Compound G2] |  | 3.8 ± 0.2 kcal/mol | -12.8 ± 0.6 cal/mol/K | 1.07 ± 0.06 | 3.8 ± 0.2 kcal/mol | -7.2 ± 0.01 kcal/mol and -7.2 ± 0.1 kcal/mol | -11.0 ± 0.2 kcal/mol | 5.27 ± 0.03 µM | 5.32 µM and 5.26 µM and 5.24 µM | 1 | 1.10 and 1.13 and 0.99 | -12.5 cal/mol/K and -13.7 cal/mol/K and -12.3 cal/mol/K | -7.2 kcal/mol | -10.9 kcal/mol (2×) and -11.3 kcal/mol | 2.8 µM and 2.79 µM |  |  |  |  |
| O=C(/C=C/c1ccc(O[C@@H]2O[C@H](CO)[C@H](O)[C@H](O)[C@H]2O)cc1)Nc1ccc(OCCOc2ccc(NC(=O)/C=C/c3ccc(O[C@@H]4O[C@H](CO)[C@H](O)[C@H](O)[C@H]4O)cc3)cn2)nc1 [Compound H1] | 8.1 ± 2.2 µM (≈ 6.99 µg/mL) |  |  |  |  |  |  |  |  |  |  |  |  |  |  |  |  |  |  |
| O=C(CCc1ccc(O[C@@H]2O[C@H](CO)[C@H](O)[C@H](O)[C@H]2O)cc1)Nc1ccc(OCCOc2ccc(NC(=O)CCc3ccc(O[C@@H]4O[C@H](CO)[C@H](O)[C@H](O)[C@H]4O)cc3)cn2)nc1 [Compound H2] | 14.8 ± 1.5 µM (≈ 12.8 µg/mL) |  |  |  |  |  |  |  |  |  |  |  |  |  | 0.54 µM | 16% | 50% | complete inhibition |  |
| Cc1ccc(NC(=O)CCc2ccc(O[C@@H]3O[C@H](CO)[C@H](O)[C@H](O)[C@H]3O)cc2)cc1S(=O)(=O)O [Compound K2] |  | 3.2 ± 0.2 kcal/mol | -10.7 ± 0.6 cal/mol/K | 1.08 ± 0.13 | 3.2 ± 0.2 kcal/mol | -7.1 ± 0.1 kcal/mol | -10.3 ± 0.1 kcal/mol | 6.23 ± 0.44 µM | 6.33 µM and 5.65 µM and 6.71 µM | 1 | 1.25 and 1.05 and 0.94 | -10.0 cal/mol/K and -11.3 cal/mol/K and -10.7 cal/mol/K | -7.1 kcal/mol (2×) and -7.2 kcal/mol | -10.3 kcal/mol and -10.1 kcal/mol and -10.4 kcal/mol | 1.9 µM and 1.89 µM |  |  |  |  |
| O=C(CCc1ccc(O[C@@H]2O[C@H](CO)[C@H](O)[C@H](O)[C@H]2O)cc1)Nc1ccc(CCc2ccc(NC(=O)CCc3ccc(O[C@@H]4O[C@H](CO)[C@H](O)[C@H](O)[C@H]4O)cc3)cc2S(=O)(=O)O)c(S(=O)(=O)O)c1 [Compound L2] |  | 9.4 ± 1.3 kcal/mol | -31.6 ± 4.4 cal/mol/K | 0.52 ± 0.06 | 9.4 ± 1.3 kcal/mol | -10.1 ± 0.1 kcal/mol | -19.5 ± 1.3 kcal/mol |  | 0.0448 µM and 0.038 µM and 0.0368 µM | 156 | 0.56 and 0.55 and 0.44 | -27.5 cal/mol/K and -37.6 cal/mol/K and -29.6 cal/mol/K | -10.0 kcal/mol and -10.1 kcal/mol (2×) | -18.9 kcal/mol and -18.3 kcal/mol and -21.4 kcal/mol | 0.56 µM | more than 30% | 50% | complete inhibition | 0.0399 ± 0.0036 µM |
